The source of these data is PubChem BioAssay (NCI).

Test systems include HL-60(TB) leukemia; OVCAR-5 ovarian; EKVX NSCLC; KM12 colon; HS 578T breast; SK-MEL-5 melanoma; OVCAR-3 ovarian; HOP-92 NSCLC.
Holding throughout (test): NCI anticancer screen, dose series, 48 h

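Growth conditions: 96-well plates. Treatment: test compound, 48 hours, 5 concentrations. Analysis: linear interpolation between bracketing concentrations; unreached endpoints set to highest concentration. At the TGI there is no net growth.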

Regarding `Cc1ccc2c(c1C)C(=O)/C(=C/c1cccc(C)c1C(=O)O)C2`, the TGI with HL-60(TB) leukemia, in the test with OVCAR-5 ovarian, with EKVX NSCLC, with KM12 colon, with HS 578T breast and in the test on SK-MEL-5 melanoma was more than 100 µM throughout. Further, the TGI is more than 100 µM with OVCAR-3 ovarian and more than 91 µM in the test on HOP-92 NSCLC.
As to `O=S(=O)(O)c1cc(S(=O)(=O)O)c2c(N=Nc3ccc(N=Nc4ccccc4)cc3)c(O)ccc2c1`, the TGI in the test with HL-60(TB) leukemia, in the test with OVCAR-5 ovarian, with EKVX NSCLC, with KM12 colon, with HS 578T breast and in the test with SK-MEL-5 melanoma was more than 100 µM throughout. The TGI with OVCAR-3 ovarian and with HOP-92 NSCLC was more than 100 µM in each case.
With `Cc1ccc(/C=C2\N=C(N3CCCC(CO)C3)NC2=O)cc1` (stereo not drawn), the TGI with HL-60(TB) leukemia, in the test on OVCAR-5 ovarian, with EKVX NSCLC, with KM12 colon, with HS 578T breast and in the test with SK-MEL-5 melanoma was more than 100 µM each time. Further, the TGI with OVCAR-3 ovarian and with HOP-92 NSCLC was more than 100 µM in each case.
Consider `CC(NC(=O)C(Cc1ccc(OC(=O)c2ccccc2)cc1)NC(=O)OC(C)(C)C)C(=O)NCC(=O)NC(Cc1ccccc1)C(=O)NN` (stereo not drawn), for which the TGI in the test on HL-60(TB) leukemia is 41.5 µM; in the test with OVCAR-5 ovarian, more than 100 µM; with EKVX NSCLC, more than 100 µM; in the test with KM12 colon, more than 100 µM; in the test on HS 578T breast, more than 100 µM; in the test on SK-MEL-5 melanoma, more than 100 µM. Besides, the TGI with OVCAR-3 ovarian and with HOP-92 NSCLC was more than 100 µM throughout.
Take `CCOC(=O)C1=C(C)N(Cc2ccccc2)C2(O)C=CC(=O)C3=C(O)c4ccccc4C(=O)C312` (stereo not drawn): the TGI with HL-60(TB) leukemia is 42.1 µM; with OVCAR-5 ovarian, 31.7 µM; in the test on EKVX NSCLC it was 39.6 µM; in the test on KM12 colon, 28.5 µM; with HS 578T breast, 97.7 µM; in the test with SK-MEL-5 melanoma, 22 µM. Besides, the figures for the TGI in the test with OVCAR-3 ovarian and in the test on HOP-92 NSCLC were 20.2 µM and 41.8 µM, respectively.
For the compound `CCOC(=O)Cn1c(=O)c(C)cn(COCCO)c1=O`, the TGI in the test with HL-60(TB) leukemia, in the test with OVCAR-5 ovarian, in the test with EKVX NSCLC, in the test on KM12 colon, in the test with HS 578T breast and in the test with SK-MEL-5 melanoma was more than 100 µM each time. The TGI with OVCAR-3 ovarian and in the test on HOP-92 NSCLC was more than 100 µM in each case.
`O=S(=O)(O)c1ccc2c(N=Nc3ccc(Sc4ccc(N=Nc5c(O)ccc6cc(S(=O)(=O)O)ccc56)cc4)cc3)c(O)ccc2c1`: the TGI in the test with HL-60(TB) leukemia, in the test with OVCAR-5 ovarian, with EKVX NSCLC, with KM12 colon, with HS 578T breast and with SK-MEL-5 melanoma was more than 100 µM in each case. The TGI in the test with OVCAR-3 ovarian and in the test with HOP-92 NSCLC was more than 100 µM throughout.
Regarding `COc1cc(/C=N/NC2=NCCN2)ccc1O`, the TGI in the test with HL-60(TB) leukemia, in the test with OVCAR-5 ovarian, in the test with EKVX NSCLC, in the test with KM12 colon, in the test with HS 578T breast and in the test on SK-MEL-5 melanoma was more than 100 µM each time. The TGI in the test with OVCAR-3 ovarian and with HOP-92 NSCLC was more than 100 µM throughout.
As to `O=P(O)(O)CN1CCNCCN(CP(=O)(O)O)CC1`, the TGI in the test with HL-60(TB) leukemia was 18.2 µM; in the test with OVCAR-5 ovarian, more than 100 µM; in the test with EKVX NSCLC, more than 100 µM; in the test on KM12 colon, more than 100 µM; with HS 578T breast it was more than 100 µM; with SK-MEL-5 melanoma it was 71.8 µM. Moreover, the TGI with OVCAR-3 ovarian and in the test with HOP-92 NSCLC was more than 100 µM each time.
On to `COc1cc2c3c(cc(Cl)nc3c1OC)C(O)(CC(=O)c1ccccc1)C(=O)N2` (stereo not drawn), for which the TGI in the test with HL-60(TB) leukemia amounted to 3.68 µM; in the test with OVCAR-5 ovarian, 35.3 µM; with EKVX NSCLC, 10.4 µM; in the test on KM12 colon, 31.3 µM; with HS 578T breast, 73.4 µM; in the test with SK-MEL-5 melanoma, 32.3 µM. Also, the TGI with OVCAR-3 ovarian is 30.2 µM; with HOP-92 NSCLC, 3.66 µM.
With `CC[C@@]1(O)C(=O)OCc2c1cc1n(c2=O)Cc2c-1nc1ccccc1c2/C=N\NC(=O)C(N)Cc1c[nH]c2ccccc12` (stereo partly drawn), the TGI in the test with HL-60(TB) leukemia is 12.1 µM; in the test on OVCAR-5 ovarian, more than 87 µM; in the test on EKVX NSCLC, more than 100 µM; with KM12 colon, more than 42.7 µM; in the test with HS 578T breast, more than 100 µM; in the test with SK-MEL-5 melanoma, 2.49 µM. The TGI with OVCAR-3 ovarian was more than 54.9 µM; with HOP-92 NSCLC, more than 54 µM.
With `CC(C)NC(=O)OCc1c(COC(=O)NC(C)C)c(-c2cc[n+](COC(=O)C3CCCCC3)cc2)n2c1CCC2`, the TGI in the test with HL-60(TB) leukemia, with OVCAR-5 ovarian, in the test on EKVX NSCLC, in the test with KM12 colon, in the test with HS 578T breast and in the test with SK-MEL-5 melanoma was more than 100 µM in each case. Also, the TGI in the test on OVCAR-3 ovarian and in the test on HOP-92 NSCLC was more than 100 µM in each case.
Take `Cc1ccc(S[C@@H](C)[C@@](O)(C(N)=O)c2ccccc2)cc1`: the TGI is more than 100 µM in the test on HL-60(TB) leukemia; more than 100 µM with OVCAR-5 ovarian; more than 100 µM in the test with EKVX NSCLC; more than 100 µM with KM12 colon; more than 100 µM in the test with HS 578T breast; 81.1 µM with SK-MEL-5 melanoma. The TGI in the test on OVCAR-3 ovarian was more than 100 µM; in the test with HOP-92 NSCLC, 37.6 µM.
In the case of `COc1ccccc1NC(=S)N/N=C/c1cccc(C)n1`, the TGI with HL-60(TB) leukemia is more than 29.8 µM; in the test with OVCAR-5 ovarian it was more than 100 µM; with EKVX NSCLC, more than 100 µM; with KM12 colon, more than 100 µM; in the test on HS 578T breast it was more than 100 µM; in the test on SK-MEL-5 melanoma it was 47.3 µM. The TGI with OVCAR-3 ovarian is more than 100 µM; with HOP-92 NSCLC, more than 92.8 µM.
As for `Cc1cc(=O)oc2c(CNC(CC(C)C)C(=O)O)c(O)ccc12` (stereo not drawn), the TGI in the test on HL-60(TB) leukemia, in the test on OVCAR-5 ovarian, in the test with EKVX NSCLC, with KM12 colon, with HS 578T breast and in the test on SK-MEL-5 melanoma was more than 100 µM throughout. Also, the TGI in the test with OVCAR-3 ovarian and in the test on HOP-92 NSCLC was more than 100 µM in each case.
As for `CN(C)CCNC(=O)c1c(O)ccc2c1c1c(n2CCc2ccccc2)C(=O)c2ccccc2C1=O`, the TGI in the test with HL-60(TB) leukemia was determined as 18.1 µM; with OVCAR-5 ovarian it was 29.5 µM; in the test with EKVX NSCLC, 28.5 µM; with KM12 colon it was 15.9 µM; with HS 578T breast, 27.1 µM; in the test on SK-MEL-5 melanoma, 7.21 µM. Further, the TGI in the test on OVCAR-3 ovarian stood at 28.1 µM; in the test on HOP-92 NSCLC it was 22.7 µM.
